“Also recorded” adds a separate entry of the source. Read-outs that look alike come from different tables or passages of the source.
Tests used:
[1] = test system: Arabidopsis; assay: Arabidopsis reversal (reversion) assay: growth with probe compound in the presence of antidote compounds; assay type: in vivo; settings: for Inhibition of AMP biosynthesis (conversion of IMP to AMP), in words: concluded from Arabidopsis antidote reversal; for Growth (in words): without antidote; for Effect of the antidote alone on growth of the plant (in words): control columns 1 through 3, no probe compound
Excerpt: Test conditions suitable for growth are those conditions wherein the control plant material used in the screen, described herein, will grow normally. These conditions are easily determined by one skilled in the art. Reversal conditions are those conditions in which inhibition which occurs at the lethal concentration of a probe compound is reversed as determined by exposure of the plant material to combinations of the probe compound and to one or more antidote compounds. […] An antidote compound is a compound that causes reversal of inhibition of a probe compound. As an example, with respect to inhibitors of ADSS, antidotes would include AMP, ADP, adenosine and adenine.
The solutions are filter sterilized prior to addition. FIG. 4 represents a typical set up in a reversion assay for discovering inhibitors of AMP biosynthesis.
The left side (columns 1-3) of the 24-well microtiter plate is designed for controls, and the right side (columns 4-6) are designated for one probe compound. […] Rows B, C and D are supplemented with three doses of an antidote for the control and probe compound. […] The three doses are 50, 100 and 150 μl respectively of the stock solutions.
Forty ml of Arabidopsis growth media as described in Example 1 is sterilized and allowed to cool to about 45° C. A probe compound (at 1.5×lethal concentration) is added to columns 4 through 6 (right half of the plate). Media is distributed at 1.0 ml per well to all wells. Sterile seeds are added to each well as described above. As in Example 1, the plate is incubated and growth is scored.

[2] = test system: Arabidopsis; assay: Arabidopsis bioassay, determination of the lethal concentration (LC 90) of the probe compound
[3] = test system: IMP to GMP conversion; settings: known; cited from earlier work
[4] = antidote Adenosine + Guanosine 0.5-5.0 mM
[5] = antidote Cytidine + Uridine 0.5-5.0 mM
[6] = antidote Hypoxanthine 0.5-5.0 mM
[7] = read-out: lethal concentration (LC 90), Arabidopsis seeds, 28° C., 7 days, approximately, 90% or greater growth inhibition

Row | Molecule | Growth, % of Control ([1]; antidote ADP 0.5-5.0 mM) | Growth, % of Control ([1]; antidote AMP 0.5-5.0 mM) | Growth, % of Control ([1]; antidote ATP 0.5-5.0 mM) | Growth, % of Control ([1]; antidote Adenine 0.5-5.0 mM) | Growth, % of Control ([1]; antidote Adenosine 0.5-5.0 mM) | Growth, % of Control [1, 4] | Growth, % of Control [1, 5] | Growth, % of Control ([1]; antidote Guanine 0.5-5.0 mM) | Growth, % of Control ([1]; antidote Guanosine 0.5-5.0 mM) | Growth, % of Control [1, 6] | Growth, % of Control ([1]; antidote IMP 0.5-5.0 mM) | Inhibition of AMP biosynthesis (conversion of IMP to AMP), in words [1] | Growth (in words) [1] | other results
1 | O=C1NC(=O)C2(N1)O[C@H](CO)[C@@H](O)[C@H]2O (single isomer, unassigned) [hydantocidin, reference compound] | 100 % of Control | 100 % of Control | 40 % of Control | 60 % of Control | 80-100 % of Control | 80 % of Control | 0 % of Control | 0 % of Control | 0 % of Control | 0 % of Control | 5 % of Control | blocking AMP biosynthesis; also recorded: inhibition of AMP biosynthesis | Growth is not observed | Growth / reversal of growth inhibition (in words) ([1]; antidote IMP): did not reverse growth inhibition; Growth / reversal of growth inhibition (in words) ([1]; antidotes adenosine and AMP, rows B and C, wells 4 through 6): Complete growth; IC90 [2, 7]: ~2 µM
2 | Nc1ncnc2c1ncn2[C@@H]1O[C@H](COP(=O)(O)O)[C@@H](O)[C@H]1O [AMP, adenosine monophosphate, reference compound] |  |  |  |  |  |  |  |  |  |  |  |  |  | Effect of the antidote alone on growth of the plant (in words) [1]: no effect on the growth of the plant
3 | COc1c(C)c2c(c(O)c1C/C=C(\C)CCC(=O)O)C(=O)OC2 [MPA, Mycophenolic Acid] |  |  |  |  |  |  |  |  |  |  |  |  | Growth is not observed | Inhibition of IMP to GMP conversion, in words [3]: known inhibitor of IMP to GMP conversion; IC90 ([2]; Arabidopsis thaliana, 168 h, read-out: lethal concentration): 12.5 µg/mL
4 | CC(=O)N1C(=O)NC2(OC(COP(=O)(O)O)C(O)C2O)C1=O (stereo not shown) [N-acetylphosphohydantocidin, 5'-Phospho-N-acetyl-hydantocidin] | 100 % of Control | 100 % of Control | 40 % of Control | 65 % of Control | 80-100 % of Control | 80 % of Control | 0 % of Control | 0 % of Control | 0 % of Control | 0 % of Control | 5 % of Control |  | Growth is not observed | Growth, % of Control ([1]; No antidote, 0 mM, probe compound at 1.5×lethal concentration): 0 % of Control; IC90 [2, 7]: ~8 µM
5 | NC(=O)c1ncn([C@@H]2O[C@H](CO)[C@@H](O)[C@H]2O)n1 [TCR, 1,2,4-triazole-3-carboxamide-1-ribose, reference compound] |  |  |  |  |  |  |  |  |  |  |  |  | Growth is not observed | 
6 | Nc1ncnc2c1ncn2[C@@H]1O[C@H](CO)[C@@H](O)[C@H]1O [adenosine, reference compound] |  |  |  |  |  |  |  |  |  |  |  |  |  | Effect of the antidote alone on growth of the plant (in words) [1]: no effect on the growth of the plant
7 | O=CN(O)CC(=O)O [hadacidin, reference compound] |  |  |  |  |  |  |  |  |  |  |  | blocking AMP biosynthesis | Growth is not observed | IC90 ([2]; Arabidopsis thaliana, 168 h, read-out: lethal concentration (LC 90)): ~50 µM
8 | N-acetyl hydantocidin | 100 % of Control | 100 % of Control | 40 % of Control | 60 % of Control | 80-100 % of Control | 80 % of Control | 0 % of Control | 0 % of Control | 0 % of Control | 0 % of Control | 5 % of Control | blocking AMP biosynthesis | Growth is not observed | 
